≈ marks a conversion by molar mass, not a printed value. Like-named read-outs stand apart in the source and are kept apart here.
What was measured:
[1] = test system: E. multilocularis metacestodes; experiment: PGI-assay: drug-induced damage on in vitro cultured metacestodes (Pathogen Box screening cascade and EC50); assay type: cell-based, Echinococcus multilocularis; details: for PGI release, % of Tx-100 control at 10 µM: confirmatory screening at 10 µM in triplicates, values as % of Tx-100 control; for PGI release, % of Tx-100 control, average, 5d / PGI release, % of Tx-100 control, average, 12d: 1 µM; for activity in the screen at 10 μM (confirmed in triplicates, >20% relative PGI release): 5 and 12 days; for activity in the screen at 10 μM (confirmed in triplicates, >20% relative PGI release) / activity in the present in vitro screen (threshold 20% relative activity compared to Tx-100): 10 μM
[2] = test system: E. multilocularis metacestodes; details: cited from earlier work
[3] = test system: E. multilocularis metacestodes; experiment: BPQ treatment of E. multilocularis infected mice; assay type: in vivo, Balb/c mice
Protocol: Balb/c mice, 6 weeks old, were purchased from Charles River Laboratories (Sulzheim, Germany) and used for in vivo experiments when they were 8 weeks old and weighted approximately 20 g. The mice were housed in a type 3 cage containing enrichment in the form of a cardboard house and paper and woodchip bedding with a maximum of seven mice per cage. […] Food and water was provided ad libitum. Experimentally infected mice were treated with BPQ to elucidate the efficacy of the drug in vivo. To infect mice, in vitro grown E. multilocularis metacestodes (isolate […]) were washed in PBS, were mechanically destroyed by pipetting and the resulting suspension was centrifuged for 5 min at 500 g. The parasite tissue was then taken up in an equal volume of PBS. Each mouse was subsequently infected intraperitoneally (i.p.) with 200 μl of this suspension. […] infected mice were randomly distributed into 3 treatment groups (8 animals per group) with 4 animals per cage. […] Treatments of mice started 2 weeks post-infection and lasted for 4 weeks, with consecutive treatment of mice for 5 days per week, followed by an interruption of treatment for 2 days for recovery. All treatments were administered by oral gavage in a volume of 50 μl, with ABZ and BPQ being suspended in corn oil. After four weeks, all mice were anesthetized with isoflurane and subsequently euthanized by CO2. The parasitic tissue from each mouse was completely resected and weighed. The mass of the resected parasitic tissue was used for statistical analyses of the experiment. […] The significance level was set to p < 0.05. Figures were prepared in R and Adobe Illustrator 2015.1.0.

[4] = test system: E. granulosus; set-up: method as in Kammerer and Perez-Esandi, 1975; Miyaji et al., 1993; details: ref Kammerer and Perez-Esandi, 1975; Miyaji et al., 1993; cited from earlier work
[5] = test system: human foreskin fibroblasts (HFF); set-up: method as in Stadelmann et al., 2016; details: ref Stadelmann et al., 2016; cited from earlier work
[6] = test system: E. multilocularis metacestodes; experiment: Vesicle viability assay by Alamar Blue (MIC); assay type: cell-based, Echinococcus multilocularis; details: Echinococcus multilocularis, 288 h, read-out: E. multilocularis MIC, Alamar Blue vesicle viability assay, 12 days of incubation
Protocol: The setup was the same as for PGI-assay EC50 calculations and it was performed in triplicates. […] Data was used to calculate the minimal inhibitory concentrations (MICs) of these compounds on metacestodes.

[7] = test system: Reuber rat hepatoma (RH) cells; experiment: Cytotoxicity by Alamar Blue assay in rat hepatoma cells; assay type: cell-based; details: 120 h
[8] = test system: human foreskin fibroblasts (HFF); experiment: Cytotoxicity by Alamar Blue assay in human foreskin fibroblasts; details: Homo sapiens, Fibroblast, 120 h
[9] = Echinococcus multilocularis, 120 h, 10 µM, singlets, 5 days of incubation, read-out: PGI release, % of the Tx-100 control, 5d
[10] = Echinococcus multilocularis, 120 h, 5 days of incubation, read-out: PGI release, % of Tx-100 control, average, 5d
[11] = Echinococcus multilocularis, 288 h, 10 µM, singlets, 12 days of incubation, read-out: PGI release, % of the Tx-100 control, 12d
[12] = Echinococcus multilocularis, 288 h, 12 days of incubation, read-out: PGI release, % of Tx-100 control, average, 12d
[13] = triplicates, 5 days of incubation
[14] = triplicates, 12 days of incubation

C[C@@H]1[C@H](O)[C@@H](C)/C=C/C=C/C=C/C=C/C=C/C=C/C=C/[C@H](O[C@@H]2O[C@H](C)[C@@H](O)[C@H](N)[C@@H]2O)C[C@@H]2O[C@](O)(C[C@@H](O)C[C@@H](O)[C@H](O)CC[C@@H](O)C[C@@H](O)CC(=O)O[C@H]1C)C[C@H](O)[C@H]2C(=O)O [MMV689000, Amphotericin B, reference compound]
cytotoxicity at 10 µM [1, 9]: 34.2%
PGI release, % of Tx-100 control at 10 µM [1, 10]: -1.34%
cytotoxicity at 10 µM [1, 11]: 51.2%
PGI release, % of Tx-100 control at 10 µM [1, 12]: 2.75%
concentration shown to destroy metacestodes in vitro ([2]; ref Reuter et al., 2003, 2010): 2.7 µM

CCCSc1ccc2nc(NC(=O)OC)[nH]c2c1 [ABZ, albendazole]
parasite burden compared to the control ([3]; p.o. in corn oil, 5 days per week, 4 weeks, BPQ 100 mg/kg, ABZ 200 mg/kg): significant reduction
adverse effects due to treatment ([3]; whole course of treatment, 4 weeks p.o.): None of the mice showed signs of adverse effects

OC(c1cc(C(F)(F)F)nc2c(C(F)(F)F)cccc12)C1CCCCN1 (stereo not shown) [MMV000016, Mefloquine, reference compound]
PGI release, % of Tx-100 control, average, 5d [1, 13]: 0.24%
PGI release, % of Tx-100 control, average, 12d [1, 14]: 8.91%
activity in the screen at 10 μM (confirmed in triplicates, >20% relative PGI release) [1]: active
activity in the screen at 10 μM (confirmed in triplicates, >20% relative PGI release) ([1]; listed as Mefloquine): identified in our screening
cytotoxicity at 10 µM [1, 9]: 16.9%
PGI release, % of Tx-100 control at 10 µM [1, 10]: 7.4%
cytotoxicity at 10 µM [1, 11]: 23.3%
PGI release, % of Tx-100 control at 10 µM [1, 12]: 47.4%
IC50 ([2]; ref Stadelmann et al., 2011, Küster et al., 2011, 2015, Rufener et al., 2018, read-out: IC50 value against this parasite in vitro): > 30 µM

NCCC[C@](N)(C(=O)O)C(F)F [MMV001625, alpha-Difluoromethylornithine, reference compound]
activity in the present in vitro screen (threshold 20% relative activity compared to Tx-100) [1]: inactive
PGI release, % of the Tx-100 control, 5d ([1]; 10 µM, singlets, 5 days of incubation): -0.43%
PGI release, % of the Tx-100 control, 12d ([1]; 10 µM, singlets, 12 days of incubation): -0.93%
effect in vivo against E. granulosus [4]: did not show any effects

O=C(Nc1cccc(C(F)(F)F)c1)c1cc(Cl)ccc1O [MMV665807]
toxicity against HFF [5]: did not exhibit any specific toxicity

N=C(N)c1ccc(OCCCCCOc2ccc(C(=N)N)cc2)cc1 [MMV000062, Pentamidine, reference compound]
activity in the present in vitro screen (threshold 20% relative activity compared to Tx-100) [1]: inactive
cytotoxicity at 10 µM [1, 9]: -1%
cytotoxicity at 10 µM [1, 11]: -1.06%
effect in vivo against E. granulosus [4]: did not show any effects

c1ccc(-c2nc(NC3CCCCC3)cc(C3CC3)n2)nc1 [MMV021013]
activity against metacestodes at 1 μM ([1]; 1 μM, triplicates): distinct in vitro activities
PGI release, % of Tx-100 control, average, 5d [1, 13]: 3.92%
PGI release, % of Tx-100 control, average, 12d [1, 14]: 24.95%
activity in the screen at 10 μM (confirmed in triplicates, >20% relative PGI release) [1]: active
EC50 ([1]; Echinococcus multilocularis, 120 h, read-out: E. multilocularis EC50, PGI-assay, 5 days in vitro): 15.8 µM
cytotoxicity at 10 µM ([1]; Echinococcus multilocularis, 120 h, read-out: PGI release, % of Tx-100 control, average, 5d): 37.8%
cytotoxicity at 10 µM ([1]; Echinococcus multilocularis, 120 h, read-out: PGI release, % of the Tx-100 control, 5d): 34.8%
cytotoxicity at 10 µM ([1]; Echinococcus multilocularis, 288 h, read-out: PGI release, % of Tx-100 control, average, 12d): 42.3%
cytotoxicity at 10 µM ([1]; Echinococcus multilocularis, 288 h, read-out: PGI release, % of the Tx-100 control, 12d): 92%
toxicity against E. multilocularis metacestodes compared with host cells (HFF, RH) ([1]; comparison of EC50 with IC50 on mammalian cells): as toxic to host cells as it was to E. multilocularis metacestodes
MIC [6]: 20 µM (≈ 5.89 µg/mL)
IC50 ([7]; read-out: RH confluent IC50): 2.07 µM
IC50 ([7]; read-out: RH preconfluent IC50): 1.1 µM
IC50 ([8]; read-out: HFF confluent IC50): 53.1 µM
IC50 ([8]; read-out: HFF preconfluent IC50): 5.14 µM

Reference: paper PMC6216040, “Repurposing of an old drug: In vitro and in vivo efficacies of buparvaquone against Echinococcus multilocularis” (International Journal for Parasitology: Drugs and Drug …, 2018)
